Laboratory results: publication PMC6002460, “Pharmacological evaluation of new constituents of “Spice”: synthetic cannabinoids based on indole, indazole, benzimidazole and carbazole scaffolds” (Forensic Toxicology, 2018)
Where two headings read alike, the source gives them in different places.

Tests used:
human CB2 receptor = target: T1, human CB2 receptor (Homo sapiens, UniProt P34972); assay: biochemical; format: binding; conditions: [3H]CP55,940 0.1 nM, CHO cell membranes; read-out: Ki ± SEM Human CB2
T1 construct: expressed in transfected cells; host or cells: CHO cells (membrane preparations)

human CB1 receptor = target: T2, human CB1 receptor (Homo sapiens, UniProt P21554); assay: biochemical; format: binding; conditions: [3H]CP55,940 0.1 nM, CHO cell membranes; read-out: Ki ± SEM Human CB1
T2 construct: expressed in transfected cells; host or cells: CHO cells (membrane preparations)

human GPR55 = target: T3, human GPR55 (Homo sapiens, UniProt Q9Y2T6); assay: β-Arrestin PathHunter assay, recombinant CHO cells expressing GPR55; format: cell-based; conditions: for Human GPR55 % activation / Human GPR55 % inhibition: value in parentheses; for Human GPR55 % inhibition: antagonist mode versus LPI 1 µM
T3 construct: host or cells: CHO cells
Description: (§1) β-Arrestin assays were performed in recombinant CHO cells expressing either the human GPR18 or the human GPR55 as described before using the β-galactosidase enzyme fragment complementation technology (β-arrestin PathHunter™ assay; DiscoverX, Fremont, CA, USA).
(§2) The orphan receptors GPR18 and GPR55 can interact with certain natural and synthetic cannabinoids. […] Therefore, we investigated the new series of indole, indazole, benzimidazole and carbazole-derived structures in β-arrestin assays at GPR18 and GPR55 (Table 2). […] For the lipophilic substitutions, the following rank order of potency was observed: ethyl > methyl > chloro > fluoro. Therefore, it can be concluded that a lipophilic substitution in position 4 of the naphthyl residue was a requirement for GPR55 inhibition.

human GPR18 = target: T4, human GPR18 (Homo sapiens, UniProt Q14330); assay: β-Arrestin PathHunter assay, recombinant CHO cells expressing GPR18; format: cell-based; conditions: for Human GPR18 % activation / Human GPR18 % inhibition: value in parentheses
T4 construct: host or cells: CHO cells
T4 sequence (Q14330 1-331): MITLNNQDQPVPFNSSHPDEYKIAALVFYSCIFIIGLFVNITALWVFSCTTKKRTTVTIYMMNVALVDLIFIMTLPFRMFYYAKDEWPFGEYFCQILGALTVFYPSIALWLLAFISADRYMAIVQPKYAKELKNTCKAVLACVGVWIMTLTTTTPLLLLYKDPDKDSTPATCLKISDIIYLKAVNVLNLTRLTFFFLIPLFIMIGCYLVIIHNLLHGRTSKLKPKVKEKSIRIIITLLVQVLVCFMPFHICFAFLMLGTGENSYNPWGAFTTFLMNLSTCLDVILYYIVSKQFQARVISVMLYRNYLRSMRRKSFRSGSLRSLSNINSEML
Description: as §1, §2

T1 sequence (P34972 whole entry): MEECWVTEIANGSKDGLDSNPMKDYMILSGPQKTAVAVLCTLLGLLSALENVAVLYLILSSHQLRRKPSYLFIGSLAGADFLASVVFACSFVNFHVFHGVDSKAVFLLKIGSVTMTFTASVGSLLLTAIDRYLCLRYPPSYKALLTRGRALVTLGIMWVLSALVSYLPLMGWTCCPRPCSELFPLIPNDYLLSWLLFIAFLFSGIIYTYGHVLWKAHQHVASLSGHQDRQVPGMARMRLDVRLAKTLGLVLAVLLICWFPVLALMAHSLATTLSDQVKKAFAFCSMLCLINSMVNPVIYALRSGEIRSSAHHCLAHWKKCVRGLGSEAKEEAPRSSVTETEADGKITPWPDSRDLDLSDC
T2 sequence (P21554 whole entry): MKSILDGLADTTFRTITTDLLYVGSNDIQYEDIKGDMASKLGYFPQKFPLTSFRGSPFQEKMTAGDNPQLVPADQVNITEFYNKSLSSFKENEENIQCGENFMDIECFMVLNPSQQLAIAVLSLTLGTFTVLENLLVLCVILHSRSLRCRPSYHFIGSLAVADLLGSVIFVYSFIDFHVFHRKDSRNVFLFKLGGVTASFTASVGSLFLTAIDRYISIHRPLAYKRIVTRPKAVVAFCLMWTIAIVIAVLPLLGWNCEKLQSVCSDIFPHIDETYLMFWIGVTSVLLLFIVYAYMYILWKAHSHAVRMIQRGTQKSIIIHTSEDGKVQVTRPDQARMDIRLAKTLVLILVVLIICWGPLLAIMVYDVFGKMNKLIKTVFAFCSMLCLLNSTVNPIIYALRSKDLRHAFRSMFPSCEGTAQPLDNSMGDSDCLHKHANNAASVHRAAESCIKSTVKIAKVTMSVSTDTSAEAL
T3 sequence (Q9Y2T6 whole entry): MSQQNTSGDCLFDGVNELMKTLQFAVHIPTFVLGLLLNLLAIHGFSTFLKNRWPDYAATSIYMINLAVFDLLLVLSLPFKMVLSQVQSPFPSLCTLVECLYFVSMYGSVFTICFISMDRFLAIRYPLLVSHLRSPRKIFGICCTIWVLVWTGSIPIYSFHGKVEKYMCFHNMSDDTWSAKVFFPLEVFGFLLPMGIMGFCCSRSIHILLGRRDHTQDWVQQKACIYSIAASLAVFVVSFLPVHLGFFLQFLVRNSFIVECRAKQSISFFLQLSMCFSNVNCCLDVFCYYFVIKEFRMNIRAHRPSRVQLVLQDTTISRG

Row | Structure (SMILES) | Ki (human CB2 receptor) | Ki (human CB1 receptor) | EC50 (human GPR55) | IC50 (human GPR55) | Human GPR55 % activation (human GPR55; agonist mode) | EC50 (human GPR18) | IC50 (human GPR18) | Human GPR18 % activation (human GPR18; agonist mode) | Human GPR55 % inhibition (human GPR55) | Human GPR18 % inhibition (human GPR18; antagonist mode) | EC50 (human GPR55; agonist mode, read-out: Human GPR55 EC50) | IC50 (human GPR55; antagonist mode versus lysophosphatidylinositol (LPI, 1 µM), read-out: Human GPR55 IC50) | EC50 (human GPR18; agonist mode, read-out: Human GPR18 EC50) | IC50 (human GPR18; antagonist mode, read-out: Human GPR18 IC50)
1 | CC[C@H](C)[C@H](NC(=O)c1nn(CCCCCF)c2ccccc12)C(N)=O (single isomer, unassigned; isomer 2) [compound 26, 5F-ADB-PINACA-isomer 2] | 0.00428 ± 0.00286 µM | 0.0031 ± 0.00153 µM | > 10 µM | > 10 µM | 2% | > 10 µM | > 10 µM | 8% |  |  |  |  |  | 
2 | O=C(Nc1cccc2ccccc12)c1cn(Cc2ccc(F)cc2)c2ccccc12 [compound 4, FDU-NNEI] | 0.064 ± 0.015 µM | 0.00742 ± 0.00251 µM | > 10 µM | > 10 µM | 13% | > 10 µM | > 10 µM | 20% | 2% |  |  |  |  | 
3 | CCCCCn1cc(C(=O)N[C@H](C(=O)OC)C(C)C)c2ccccc21 [compound 5, MMB-018] | 0.014 ± 0.0008 µM | 0.0151 ± 0.0059 µM | > 10 µM | > 10 µM | 5% | > 10 µM | > 10 µM | 13% | 5% |  |  |  |  | 
4 | CCCCCn1nc(C(=O)N[C@H](C(=O)OC)C(C)C)c2ccccc21 [compound 6, AMB] | 0.000973 ± 0.000104 µM | 0.000866 ± 5.7e-05 µM | > 10 µM | > 10 µM | 15% | > 10 µM | > 10 µM | 42% | 28% | 15% |  |  |  | 
5 | COC(=O)[C@@H](NC(=O)c1cn(CCCCCF)c2ccccc12)C(C)C [compound 7, MMB-2201] | 0.0198 ± 0.0042 µM | 0.0152 ± 0.005 µM | > 10 µM | > 10 µM | 5% | > 10 µM | > 10 µM | 2% |  |  |  |  |  | 
6 | CC(C)[C@H](NC(=O)c1nn(CCCCCCl)c2ccccc12)C(N)=O [compound 17, 5Cl-AB-PINACA] | 0.012 ± 0.0017 µM | 0.00406 ± 0.00195 µM | > 10 µM | > 10 µM | 17% | > 10 µM | > 10 µM | 4% |  | 0% |  |  |  | 
7 | CC(C)(C)[C@H](NC(=O)c1cn(CC2CCCCC2)c2ccccc12)C(N)=O [compound 22, ADB-CHMICA] | 0.000628 ± 0.000231 µM | 0.00124 ± 0.00036 µM | > 10 µM | > 10 µM | 17% | > 10 µM | > 10 µM | 8% | 8% | 14% |  |  |  | 
8 | CC(C)(C)[C@H](NC(=O)c1nn(CC2CCCCC2)c2ccccc12)C(N)=O [compound 25] | 0.000331 ± 4.8e-05 µM | 0.000333 ± 5.9e-05 µM | > 10 µM | > 10 µM | 16% | > 10 µM | > 10 µM | 6% |  | > 10 (10%) |  |  |  | 
9 | NC(=O)[C@H](Cc1ccccc1)NC(=O)c1cn(CCCCCF)c2ccccc12 [compound 27, PX-1] | 0.164 ± 0.017 µM | 0.485 ± 0.117 µM | > 10 µM | > 10 µM | 6% | > 10 µM | > 10 µM | 15% | 1% |  |  |  |  | 
10 | NC(=O)[C@H](Cc1ccccc1)NC(=O)c1nn(CCCCCF)c2ccccc12 [compound 28, PX-2] | 0.0174 ± 0.0014 µM | 0.127 ± 0.043 µM | > 10 µM | > 10 µM | 16% | > 10 µM | > 10 µM |  |  | 15% |  |  |  | 
11 | CCCCCn1c2ccccc2c2cc(C(=O)c3cccc4ccccc34)ccc21 [compound 39, EG-018] | 0.00227 ± 0.00038 µM |  |  |  | 0% |  |  | 2% | 1% |  | > 10 µM | > 10 µM | > 10 µM | > 10 µM
